Entries after “also recorded” stand apart in the source; their conditions may differ.
What was measured:
Aβ42 transgenic flies = assay: Pavlovian olfactory associative immediate memory in Aβ42 transgenic flies; format: in vivo, Drosophila; conditions: Aβ42 transgenic male flies, 7-day drug feeding, 50 μg/ml, tested day 10 after eclosion
Protocol: Behavioral screening was performed with 2000 synthetic compounds (purchased from TimTec LLC, USA) with structures that are presumably targeted to protein kinase activities (FIG. 1A). Only male flies were selected for 7-day drug treatment and then subjected to behavioral assay at day 10 after eclosion. […] Among them, 9 were tested in double transgenic mice and compounds were indicated to have positive results after 2 months of treatment (6- to 8-month-old) (FIG. 1A-G).

[1] = test system: double transgenic mice (APPswe.PSEN1dE9); assay: Morris water maze in double transgenic AD-model mice; format: in vivo, mouse; conditions: two-month treatment (6- to 8-month-old), lavage once daily
[2] = target: T1, human EGFR expressed in COS-7 cells (Homo sapiens, UniProt P00533); assay: Oligomeric Aβ42-induced phosphorylation of EGFR in COS-7 cells transfected with EGFRwt plasmid (Western blot); format: cell-based; conditions: 10 μg/ml oligomeric Aβ42, COS-7 cells transfected with EGFRwt plasmid
T1 construct: expressed in transfected cells; host or cells: COS-7
Protocol: (§1) COS-7 cells were cultured in normal Dulbecco's Modified Eagle Medium (D-MEM) containing 10% fetal bovine serum (Invitrogen) at 37° C. in 5% CO2. Transfection of the cells with an EGFR^WT plasmid was performed following the Lipofectamine 2000 manuals (Invitrogen). After 48 h, cells were washed with fresh medium once and incubated with 10 or 25 μg/ml Aβ42 oligomers for 15 min at 37° C. in 5% CO2. 0.5 μg/ml human EGF (Sigma) was used as a positive control. Cells were then washed with PBS for 3 times and collected.
The preparation procedure was described previously (Dahlgren K, et al., J Biol Chem. 277:32046-53, 2002). Synthetic and recombinant wild type Aβ42 (AnaSpec, Inc.) was initially dissolved to 1 mM in hexafluoroisopropanol (Sigma).
Hexafluoroisopropanol was removed under vacuum in a Speed Vac, and the peptide film was stored at −20° C. For oligomer preparation, the peptide was first resuspended in DMSO to a concentration of 12.5 mg/ml and then diluted with DMEM/F-12 (phenol red-free, Invitrogen) to a final concentration of 500 μg/ml and incubated at 4° C. for 24 h.
(§2) Whole fly head or cells lysates were prepared using a RIPA buffer containing 0.3% SDS, 50 mM Tris-HCl, pH 7.4, 0.5% NP-40, 1% sodium deoxycholate, 150 mM NaCl, 5 mM EDTA, 1 tablet per 50 ml complete protease inhibitor cocktail (Roche Diagnostics). Lysates were diluted in an SDS sample buffer and separated on 10-20% Tris-Tricine gels (Invitrogen), and transferred to nitrocellulose membranes (Invitrogen). The membranes were boiled in PBS for 3 min, blocked with 5% non-fat dry milk and blotted with a first antibody. First antibodies used included mouse anti-Aβ42 (6E10, Covance Research Products), mouse anti-dEGFR (Abcam), rabbit anti-hEGFR (Cell Signaling), mouse anti-hEGFR-p (Cell Signaling) and rabbit anti-Actin (Sigma). Data were analyzed with the ImageJ software (National Institutes of Health).
Behavioral screening was performed with 2000 synthetic compounds (purchased from TimTec LLC, USA) with structures that are presumably targeted to protein kinase activities (FIG. 1A). […]

[3] = target: T1, human EGFR expressed in COS-7 cells; assay: Normal p-EGFR level in EGFRwt-expressing COS-7 cells without oligomeric Aβ42 (Western blot); format: cell-based; conditions: 100 μg/ml compound, EGFRwt-expressing COS-7 cells without oligomeric Aβ42 peptides
Protocol: FIG. 2. […] 100 μg/ml JKF-006, JKF-011 and JKF-027 were used to treat EGFR^wt-expressing COS-7 cells without oligomeric Aβ42 peptides. […] N=3-4.
as §1, §2

| Compound | Rescue/prevention of Aβ42-induced memory loss (performance index) (Aβ42 transgenic flies) | Rescue of Aβ-induced memory loss (Morris water maze) ([1]; 58 mg/kg/day) | Effect on oligomeric Aβ42-induced increase of p-EGFR activity [2] | Effect on normal (endogenous) p-EGFR level [3] | Rescue of Aβ-induced memory loss (Morris water maze) ([1]; 14 mg/kg/day) | Rescue of Aβ-induced memory loss (Morris water maze) ([1]; 55 mg/kg/day) |
| --- | --- | --- | --- | --- | --- | --- |
| N#C/C(=C/c1ccc(-c2cc(C(=O)O)ccc2Cl)o1)C(=O)Nc1ccc(F)cc1 [JKF-006, Benzoic acid, 4-chloro-3-[5-[2-cyano-3-[(4-fluorophenyl)amino]-3-oxo-1-propen-1-yl]-2-furanyl]-] | effective in rescuing memory loss | Rescue of Aβ-induced memory loss; also recorded: effective results in rescuing the memory loss | capable of inhibiting induced p-EGFR activity; also recorded: significantly inhibit | None of the compounds changed the p-EGFR level; also recorded: incapable of affecting the endogenous p-EGFR level |  |  |
| O=C1CNCCN1 [JKF-011, Piperazin-2-one] | effective in rescuing memory loss |  | capable of inhibiting induced p-EGFR activity; also recorded: significantly inhibit | None of the compounds changed the p-EGFR level; also recorded: incapable of affecting the endogenous p-EGFR level | Rescue of Aβ-induced memory loss; also recorded: effective results in rescuing the memory loss |  |
| 2-Propenamide, 2-cyano-N-[2-(1H- indol-3-yl)ethyl]-3-[5- (4-morpholinyl)-2- furanyl]- [JKF-027] | effective in rescuing memory loss |  | capable of inhibiting induced p-EGFR activity; also recorded: significantly inhibit | None of the compounds changed the p-EGFR level; also recorded: incapable of affecting the endogenous p-EGFR level |  | Rescue of Aβ-induced memory loss; also recorded: effective results in rescuing the memory loss |

Reference: US9084793B2, “Methods for treating Alzheimer's disease by administering certain synthetic compounds” (BEIJING JOEKAI BIOTECHNOLOGY LLC, priority 2011, dated 2015)
